Reference: ChEMBL document CHEMBL2417542 (Bioorg Med Chem Lett, 2013)
pEC50: −log10 of the molar value. In brackets after ≈: the same amount, converted by molar mass.

Tests used:
[1] = tested on: Human immunodeficiency virus 1; assay: Antiviral activity against HIV1 3B harboring reverse transcriptase K103N/Y181C double mutant infected in human MT2 cells assessed as protection against virus-induced effect by MTT assay; type: functional, organism-based; details: for pEC50: Human immunodeficiency virus 1, 3B, MT2, read-out: EC50
[2] = tested on: Human immunodeficiency virus 1; assay: Antiviral activity against HIV1 3B harboring reverse transcriptase Y181C mutant infected in human MT2 cells assessed as protection against virus-induced effect by MTT assay; type: functional, organism-based; details: for pEC50: Human immunodeficiency virus 1, 3B, MT2, read-out: EC50
[3] = Equilibrium solubility of the compound by shake-flask method; type: physicochemical
[4] = Aqueous solubility of the compound in Britton-Robinson buffer at pH 6.5 after 48 hrs by shake-flask method; type: physicochemical
[5] = Intrinsic solubility of the compound in water at 25 degC after 7 days by HPLC analysis; type: physicochemical; details: buffer, 168 h
[6] = tested on: Human immunodeficiency virus 1; assay: Antiviral activity against HIV1 3B harboring reverse transcriptase Y181C mutant infected in human MT4 cells assessed as protection against virus-induced effect; type: functional, organism-based; details: Human immunodeficiency virus 1, 3B
MT2 = assay: (§1) Cytotoxicity against human MT2 cells assessed as growth inhibition; type: cell-based; details: mt2
[7] = tested on: Human immunodeficiency virus 1; assay: Antiviral activity against wild type HIV1 3B infected in human MT4 cells assessed as protection against virus-induced effect; type: functional, organism-based; details: Human immunodeficiency virus 1, 3B
[8] = Aqueous solubility of the compound; type: physicochemical; details: aqueous medium
[9] = Solubility of the compound in water by HPLC analysis; type: physicochemical
[10] = as §1; type: cell-based; details: MT2 cells

With N#Cc1ccc(Nc2nc(Nc3c(F)cc(C4CC4)cc3F)nc(OCCCN3CCOCC3)n2)cc1 as the compound, how does the pEC50 [1] read?
The pEC50 was 6.82.

What about the pEC50 [2] of the same compound?
Its pEC50 is 5.96.

With Cc1cc(C)c(Nc2nc(Nc3ccc(C#N)cc3)nc(OCCCC3CCNCC3)n2)c(C)c1 as the compound, how does the pEC50 [1] read?
Its pEC50 is 6.85.

And the pEC50 [2]?
Its pEC50 is 5.92.

Which solubility thermodynamic [3] does the source give for CN1C(C(=O)Nc2ccccn2)=C(O)c2ccccc2S1(=O)=O [PIROXICAM] here?
The solubility thermodynamic was 6.4 µg/mL (≈ 19.3 µM).

What about the solubility thermodynamic at 48 h [4] of the same compound?
Its solubility thermodynamic at 48 h is 7.2 µg/mL (≈ 21.7 µM).

Which Intrinsic_solubility [5] does the source give for CC(C)=CCOc1cc(NC(=S)c2ccoc2C)ccc1Cl [UC 781] here?
Its Intrinsic_solubility is less than 0.03 µg/mL.

Which results are given for Cc1cc(C)c(Nc2cc(OCCCN3CCOCC3)nc(Nc3ccc(C#N)cc3)n2)c(C)c1?
solubility thermodynamic at 48 h [4]: 27.3 µg/mL (≈ 57.8 µM); pEC50 [1]: 7.42; pEC50 [2]: 6.32

With Cc1cc(C)c(Nc2ccnc(Nc3ccc(C#N)cc3)n2)c(C)c1 [DAPIVIRINE] as the compound, how does the pEC50 [6] read?
The pEC50 was 8.15.

What about the CC50 (MT2) of the same compound?
Its CC50 is 2000 nM.

What about the pEC50 [1] of the same compound?
Its pEC50 is 7.41.

What about the pEC50 [7] of the same compound?
Its pEC50 is 8.92.

What about the pEC50 [2] of the same compound?
Its pEC50 is 7.41.

For Cc1cc(C#N)cc(C)c1Oc1nc(Nc2ccc(C#N)cc2)nc(N)c1Br [ETRAVIRINE], which solubility [8] is on record?
Its solubility is less than 1 µg/mL.

For Cc1ccnc2c1NC(=O)c1cccnc1N2C1CC1 [NEVIRAPINE], which solubility [9] is on record?
The solubility was 167 µg/mL (≈ 627 µM).

What about the CC50 [10] of the same compound?
The CC50 was greater than 100000 nM.

What about the EC50 ([1]; mt2) of the same compound?
The EC50 was “Not Active”.

And the EC50 ([2]; mt2)?
Its EC50 is “Not Active”.

What does the source list for Cc1cc(F)c(Nc2nc(Nc3ccc(C#N)cc3)nc(OCCCN3CCOCC3)n2)c(F)c1?
solubility thermodynamic at 48 h [4]: 22.9 µg/mL (≈ 47.6 µM); pEC50 [1]: 7.15; pEC50 [2]: 6.46

With CCc1cc(F)c(Nc2nc(Nc3ccc(C#N)cc3)nc(OCCCN3CCOCC3)n2)c(F)c1 as the compound, how does the pEC50 [1] read?
Its pEC50 is 7.30.

What about the pEC50 [2] of the same compound?
The pEC50 was 6.30.

For Cc1cc(C)c(Nc2nc(Nc3ccc(C#N)cc3)nc(OCCN3CCOCC3)n2)c(C)c1, which solubility thermodynamic at 48 h [4] is on record?
Its solubility thermodynamic at 48 h is 4.42 µg/mL (≈ 9.62 µM).

What about the pEC50 [1] of the same compound?
Its pEC50 is 6.96.

And the pEC50 [2]?
The pEC50 was 6.15.

Which solubility thermodynamic at 48 h [4] does the source give for Cc1cc(C#N)cc(C)c1Nc1nc(Nc2ccc(C#N)cc2)nc(OCCCN2CCOCC2)n1 here?
Its solubility thermodynamic at 48 h is 13.3 µg/mL (≈ 27.4 µM).

And the pEC50 [1]?
The pEC50 was 7.38.

And the pEC50 [2]?
Its pEC50 is 6.00.

Which solubility thermodynamic at 48 h [4] does the source give for Cc1cc(/C=C/C#N)cc(C)c1Nc1nc(Nc2ccc(C#N)cc2)nc(OCCCN2CCOCC2)n1 here?
Its solubility thermodynamic at 48 h is 14.2 µg/mL (≈ 27.8 µM).

Which solubility thermodynamic at 48 h [4] does the source give for Cc1cc(C)c(Nc2cc(OCCN3CCOCC3)nc(Nc3ccc(C#N)cc3)n2)c(C)c1 here?
Its solubility thermodynamic at 48 h is 12.5 µg/mL (≈ 27.3 µM).

And the pEC50 [1]?
Its pEC50 is 7.22.

And the pEC50 [2]?
The pEC50 was 6.15.

For Cc1cc(C)c(Nc2ncnc(Nc3ccc(C#N)cc3)n2)c(C)c1, which solubility thermodynamic at 48 h [4] is on record?
Its solubility thermodynamic at 48 h is 0.2 µg/mL (≈ 0.605 µM).

With Cc1cc(C)c(Nc2nc(Nc3ccc(C#N)cc3)nc(OCCC3CCNCC3)n2)c(C)c1 as the compound, how does the pEC50 [1] read?
The pEC50 was 7.00.

What about the pEC50 [2] of the same compound?
The pEC50 was 6.00.

With CC(C)c1cc(F)c(Nc2nc(Nc3ccc(C#N)cc3)nc(OCCCN3CCOCC3)n2)c(F)c1 as the compound, how does the pEC50 [1] read?
Its pEC50 is 7.52.

And the pEC50 [2]?
The pEC50 was 6.57.

Which solubility thermodynamic at 48 h [4] does the source give for Cc1cc(C)c(Nc2nc(Nc3ccc(C#N)cc3)nc(OCCCN3CCOCC3)n2)c(C)c1 here?
Its solubility thermodynamic at 48 h is 15.3 µg/mL (≈ 32.3 µM).

What about the pEC50 [1] of the same compound?
The pEC50 was 7.51.

What about the pEC50 [2] of the same compound?
Its pEC50 is 6.51.
